Experimental data published in patent US8598190B2, “3H-imidazo [4, 5-C] pyridine-6-carboxamides as anti-inflammatory agents” (Boehringer Ingelheim International GmbH, priority 2008, dated 2013).

Molecular target: T1, recombinant human mPGES-1 (Homo sapiens, UniProt O14684)
T1 construct: made in house; host or cells: Rosetta E. coli (microsomal/membrane fraction)
T1 sequence (O14684 1-152): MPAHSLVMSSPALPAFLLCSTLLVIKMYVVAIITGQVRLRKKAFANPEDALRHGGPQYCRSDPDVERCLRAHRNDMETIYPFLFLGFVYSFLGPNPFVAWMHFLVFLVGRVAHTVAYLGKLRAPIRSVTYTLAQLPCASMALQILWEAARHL
Assay: mPGES-1 inhibition test (microsomes, HTRF detection of PGE2)
Format: biochemical
Protocol: Microsomes from Rosetta E. coli bacteria expressing recombinant human mPGES-1 is dissolved in 0.1 M KPi pH 7.4 buffer containing 2.5 mM GSH. 50 μl of the enzyme is subsequently dispensed in a 384-well plate. 0.5 μl of the inhibitor dissolved in DMSO at is thereafter added to each well and incubated for 25 minutes at room temperature.
Subsequently, 2 μl of PGH2 dissolved in an appropriate solvent is added to each well and after one minute the acidified stop solution containing FeCl2 is added. 4 μl of the total volume is transferred to a separate plate and diluted 750-fold in two separate steps before HTRF detection of PGE2.
The HTRf detection is performed by the use of a commercially available kit from CisBio essentially according to the manufacturer's protocol. Briefly, 10 μl of the diluted sample is transferred to a white 384-well plate. 5 μl of d2 and 5 μl Eu3+-Cryptate labeled anti-PGE2 is added to each well containing samples by the use of a Multidrop. The plate is covered with a plastic self-adhesive film, centrifuged at 1200 rpm for 1 minute and subsequently stored at +4° C. over night.
After over night incubation the fluorescence is measured by the use of an appropriate microplate reader. The fluorescence of europium cryptate, and d2 are measured using the following excitation and emission wavelength, europium cryptate: λmax^ex=307 nm, λmax^em=620 nm and d2: λmax^ex=620 nm, λmax^em=665 nm), respectively. The extent of the specific FRET is measured as a ratio of the emission intensity at 665 nm vs. that at 620 nm. A standard curve using synthetic PGE2 is used to quantify the amount of PGE2 in unknown samples.

Row | SMILES | inhibition at 10 µM [%]
1 | O=C(NCc1ncccc1C(F)(F)F)c1cc2[nH]c(Nc3c(Cl)cccc3Cl)nc2cn1 [Example 509, 2-(2,6-Dichlorophenylamino)-N-((3-trifluoromethyl-pyridin-2-yl)methyl)-1H-imidazo[4,5-c]pyridine-6-carboxamide] | 97
2 | Cn1c(Nc2c(Cl)cncc2Cl)nc2cc(C(=O)N[C@H]3CC[C@H](C(F)(F)F)CC3)ncc21 [Example 515, 2-(3,5-Dichloropyridin-4-ylamino)-3-methyl-N-((1r,4r)-4-trifluoromethyl-cyclohexyl)-3H-imidazo[4,5-c]pyridine-6-carboxamide] | 100
3 | Cn1c(Nc2c(F)cccc2Cl)nc2cc(C(=O)NCc3ncccc3C3CC3)ncc21 [Example 522, 2-(2-Chloro-6-fluorophenylamino)-N-((3-cyclopropylpyridin-2-yl)-methyl)-3-methyl-3H-imidazo[4,5-c]pyridine-6-carboxamide] | 100
4 | Cn1c(Nc2c(Cl)cccc2Cl)nc2cc(C(=O)NCc3ncccc3C(F)(F)F)ncc21 [Example 528, 2-(2,6-Dichlorophenylamino)-3-methyl-N-((3-trifluoromethyl-pyridin-2-yl)-methyl)-3H-imidazo[4,5-c]pyridine-6-carboxamide] | 96
5 | Cn1c(Nc2c(Cl)cncc2Cl)nc2cc(C(=O)NCc3ncccc3C(F)(F)F)ncc21 [Example 550, 2-(3,5-Dichloropyridin-4-ylamino)-3-methyl-N-((3-trifluoromethyl-pyridin-2-yl)-methyl)-3H-imidazo[4,5-c]pyridine-6-carboxamide] | 95
6 | Cc1cc(C)nc(NC(=O)c2cc3[nH]c(Nc4c(Cl)cccc4Cl)nc3cn2)c1 [Example 716, 2-(2,6-Dichlorophenylamino)-N-(4,6-dimethyl-pyridin-2-yl)-1H-imidazo[4,5-c]pyridine-6-carboxamide] | 100
7 | Cc1cnc(NC(=O)c2cc3[nH]c(Nc4c(Cl)cccc4Cl)nc3cn2)cc1C [Example 717, 2-(2,6-Dichlorophenylamino)-N-(4,5-dimethyl-pyridin-2-yl)-1H-imidazo[4,5-c]pyridine-6-carboxamide] | 100
8 | Cc1cc(NC(=O)c2cc3[nH]c(Nc4c(Cl)cccc4Cl)nc3cn2)ncc1Cl [Example 718, 2-(2,6-Dichlorophenylamino)-N-(5-chloro-4-methyl-pyridin-2-yl)-1H-imidazo[4,5-c]pyridine-6-carboxamide] | 100
9 | Cc1cc(NC(=O)c2cc3[nH]c(Nc4c(Cl)cccc4Cl)nc3cn2)ncc1F [Example 719, 2-(2,6-Dichlorophenylamino)-N-(5-fluoro-4-methyl-pyridin-2-yl)-1H-imidazo[4,5-c]pyridine-6-carboxamide] | 100
10 | O=C(Nc1ccc(C(F)(F)F)cn1)c1cc2[nH]c(Nc3c(Cl)cccc3Cl)nc2cn1 [Example 720, 2-(2,6-Dichlorophenylamino)-N-(5-trifluoromethyl-pyridin-2-yl)-1H-imidazo[4,5-c]pyridine-6-carboxamide] | 100
11 | O=C(NCC(F)(F)C(F)(F)C(F)(F)C(F)(F)C(F)(F)C(F)(F)C(F)(F)F)c1cc2[nH]c(Nc3c(Cl)cccc3Cl)nc2cn1 [Example 721, 2-(2,6-Dichlorophenylamino)-N-(2,2,3,3,4,4,5,5,6,6,7,7,8,8,8-pentadecafluoro-octyl)-1H-imidazo[4,5-c]pyridine-6-carboxamide] | 100
12 | O=C(Nc1ccc(Br)cc1)c1cc2[nH]c(Nc3c(Cl)cccc3Cl)nc2cn1 [Example 722, 2-(2,6-Dichlorophenylamino)-N-(4-bromo-phenyl)-1H-imidazo[4,5-c]pyridine-6-carboxamide] | 100
13 | Cc1cc(C(F)(F)F)cc(NC(=O)c2cc3[nH]c(Nc4c(Cl)cccc4Cl)nc3cn2)n1 [Example 723, 2-(2,6-Dichlorophenylamino)-N-(6-methyl-4-trifluoromethyl-pyridin-2-yl)-1H-imidazo[4,5-c]pyridine-6-carboxamide] | 100
14 | Cc1cnc(NC(=O)c2cc3nc(Nc4c(Cl)cccc4Cl)n(C)c3cn2)cc1C [Example 724, 2-(2,6-Dichlorophenylamino)-3-methyl-N-(4,5-dimethyl-pyridin-2-yl)-3H-imidazo[4,5-c]pyridine-6-carboxamide] | 100
15 | O=C(Nc1ccc(C2CC2)cn1)c1cc2[nH]c(Nc3c(Cl)cccc3Cl)nc2cn1 [Example 725, 2-(2,6-Dichlorophenylamino)-N-(5-cyclopropyl-pyridin-2-yl)-1H-imidazo[4,5-c]pyridine-6-carboxamide] | 100
16 | Cc1cc(NC(=O)c2cc3nc(Nc4c(Cl)cccc4Cl)n(C)c3cn2)ncc1Cl [Example 726, 2-(2,6-Dichlorophenylamino)-3-methyl-N-(5-chloro-4-methyl-pyridin-2-yl)-3H-imidazo[4,5-c]pyridine-6-carboxamide] | 100
17 | O=C(Nc1cc(C(F)(F)F)ccn1)c1cc2[nH]c(Nc3c(F)cccc3C(F)(F)F)nc2cn1 [Example 727, 2-(2-Fluoro-6-trifluoromethyl-phenylamino)-N-(4-trifluoromethyl-pyridin-2-yl)-1H-imidazo[4,5-c]pyridine-6-carboxamide] | 99
18 | O=C(Nc1cc(C(F)(F)F)ccn1)c1cc2[nH]c(Nc3c(Cl)cccc3C(F)(F)F)nc2cn1 [Example 728, 2-(2-Chloro-6-trifluoromethyl-phenylamino)-N-(4-trifluoromethyl-pyridin-2-yl)-1H-imidazo[4,5-c]pyridine-6-carboxamide] | 98
19 | O=C(Nc1cc(C(F)(F)F)ccn1)c1cc2[nH]c(Nc3c(F)cccc3Cl)nc2cn1 [Example 729, 2-(2-Chloro-6-fluoro-phenylamino)-N-(4-trifluoromethyl-pyridin-2-yl)-1H-imidazo[4,5-c]pyridine-6-carboxamide] | 100
20 | O=C(Nc1cc(C(F)(F)F)ccn1)c1cc2[nH]c(Nc3c(Cl)cc(F)cc3Cl)nc2cn1 [Example 730, 2-(2,6-Dichloro-4-fluoro-phenylamino)-N-(4-trifluoromethyl-pyridin-2-yl)-1H-imidazo[4,5-c]pyridine-6-carboxamide] | 100
21 | O=C(Nc1cc(C(F)(F)F)ccn1)c1cc2[nH]c(Nc3c(F)cc(F)cc3Cl)nc2cn1 [Example 731, 2-(2-Chloro-4,6-difluoro-phenylamino)-N-(4-trifluoromethyl-pyridin-2-yl)-1H-imidazo[4,5-c]pyridine-6-carboxamide] | 100
22 | O=C(Nc1ccc(Br)cc1)c1cc2[nH]c(Nc3c(Cl)cncc3Cl)nc2cn1 [Example 732, 2-(3,5-Dichloro-pyridin-4-yl-amino)-N-(4-bromo-phenyl)-1H-imidazo[4,5-c]pyridine-6-carboxamide] | 100
23 | Cc1cc(C(F)(F)F)cc(NC(=O)c2cc3[nH]c(Nc4c(Cl)cncc4Cl)nc3cn2)n1 [Example 733, 2-(3,5-Dichloro-pyridin-4-yl-amino)-N-(6-methyl-4-trifluoromethyl-pyridin-2-yl)-1H-imidazo[4,5-c]pyridine-6-carboxamide] | 99
24 | Cn1c(Nc2cnccc2C(F)(F)F)nc2cc(C(=O)Nc3cc(C(F)(F)F)ccn3)ncc21 [Example 734, 2-(4-Trifluoromethyl-pyridin-3-ylamino)-3-methyl-N-(4-trifluoromethyl-pyridin-2-yl)-3H-imidazo[4,5-c]pyridine-6-carboxamide] | 99
25 | Cc1cnc(NC(=O)c2cc3[nH]c(Nc4c(Cl)cncc4Cl)nc3cn2)cc1C1CC1 [Example 735, 2-(3,5-Dichloro-pyridin-4-yl-amino)-N-(4-cyclopropyl-5-methyl-pyridin-2-yl)-1H-imidazo[4,5-c]pyridine-6-carboxamide] | 99
26 | O=C(Nc1cc(C(F)(F)F)cc(Cl)n1)c1cc2[nH]c(Nc3c(Cl)cncc3Cl)nc2cn1 [Example 736, 2-(3,5-Dichloro-pyridin-4-yl-amino)-N-(6-chloro-4-trifluoromethyl-pyridin-2-yl)-1H-imidazo[4,5-c]pyridine-6-carboxamide] | 98
27 | CC(C)c1ccc(NC(=O)c2cc3[nH]c(Nc4c(Cl)cncc4Cl)nc3cn2)nc1 [Example 737, 2-(3,5-Dichloro-pyridin-4-yl-amino)-N-(5-isopropyl-pyridin-2-yl)-1H-imidazo[4,5-c]pyridine-6-carboxamide] | 97
28 | O=C(Nc1cc(C2CCC2)ccn1)c1cc2[nH]c(Nc3c(Cl)cncc3Cl)nc2cn1 [Example 738, 2-(3,5-Dichloro-pyridin-4-yl-amino)-N-(4-cyclobutyl-pyridin-2-yl)-1H-imidazo[4,5-c]pyridine-6-carboxamide] | 100
